Measured values: US6737383B1, “Herbicidal oxadiazolidines” (priority 1999, dated 2004)

Key:
crabgrass = test: Test B pre/postemergence crabgrass; type: in vivo, Digitaria sanguinalis
In short: (§1)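 Herbicidal effect was estimated by eye on a ten-point control scale after plants spent twelve to sixteen days in a greenhouse following soil or foliar treatment. Foliar sprays targeted plants at one to four leaves; all doses were formulated in a non-phytotoxic solvent with surfactant.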

corn = test: Test B pre/postemergence corn; type: in vivo, Zea mays
In short: as §1

surinam grass = test: Test B pre/postemergence surinam grass; type: in vivo, Brachiaria decumbens; conditions: for Plant response rating, B. signalgrass: Postemergence; for B. signalgrass plant response rating: Preemergence
In short: as §1

soybean = test: Test B pre/postemergence soybean; type: in vivo, Glycine max
In short: as §1

giant foxtail = test: Test B pre/postemergence giant foxtail; type: in vivo, Setaria faberii
In short: as §1

rape = test: Test B pre/postemergence rape; type: in vivo, Brassica napus
In short: as §1

smallflower flatsedge = test: Test B flood test smallflower flatsedge; type: in vivo, Cyperus difformis
In short: (§2)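 Flood test on plants grown to the 2-leaf stage; treated plants kept in greenhouse twelve to sixteen days, then visually rated against controls on a 0 (no effect) to 10 (complete control) scale.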

bamyardgrass = test: Test B flood test barnyardgrass; type: in vivo, Echinochloa crus-galli
In short: as §2

pigweed = test: Test B pre/postemergence pigweed; type: in vivo, Amaranthus retroflexus
In short: as §1

cocklebur = test: Test B pre/postemergence cocklebur; type: in vivo, Xanthium strumarium
In short: as §1

sugar beet = test: Test B pre/postemergence sugar beet; type: in vivo, Beta vulgaris
In short: as §1

purple nutsedge = test: Test B pre/postemergence purple nutsedge; type: in vivo, Cyperus rotundus
In short: as §1

wheat = test: Test B pre/postemergence wheat; type: in vivo, Triticum aestivum
In short: as §1

blackgrass = test: Test B pre/postemergence blackgrass; type: in vivo, Alopecurus myosuroides
In short: as §1

wild oat = test: Test B pre/postemergence wild oat; type: in vivo, Avena fatua
In short: as §1

velvetleaf = test: Test B pre/postemergence velvetleaf; type: in vivo, Abutilon theophrasti
In short: as §1

morningglory = test: Test B pre/postemergence morningglory; type: in vivo, Ipomoea hederacea
In short: as §1

duck salad = test: Test B flood test duck salad; type: in vivo, Heteranthera limosa
In short: as §2

rice = test: Test B flood test rice; type: in vivo, Oryza sativa
In short: as §2

[1] = Postemergence, Rate 62 g/ha, scale 0 to 10, 0 is no effect, 10 is complete control
[2] = Postemergence, Rate 125 g/ha, scale of 0 to 10 where 0 is no effect and 10 is complete control
[3] = Postemergence, Rate 250 g/ha, scale of 0 to 10, 0 is no effect, 10 is complete control
[4] = Postemergence, Rate 500 g/ha, scale of 0 to 10 where 0 is no effect and 10 is complete control
[5] = Preemergence, Rate 62 g/ha, scale 0 to 10 (0 no effect, 10 complete control)
[6] = Preemergence, Rate 125 g/ha, scale of 0 to 10 where 0 is no effect and 10 is complete control
[7] = Preemergence, Rate 500 g/ha, scale of 0 to 10 where 0 is no effect and 10 is complete control
[8] = Rate 125 g/ha, scale of 0 to 10 where 0 is no effect and 10 is complete control
[9] = Rate 500 g/ha, scale of 0 to 10 where 0 is no effect and 10 is complete control
[10] = Rate 62 g/ha, flood test species, Pre-emergence, visual evaluation after twelve to sixteen days
[11] = Rate 125 g/ha, under heading Pre-emergence, flood test species, visual evaluation after twelve to sixteen days
[12] = Rate 250 g/ha, Pre-emergence (flood test species), scale 0 to 10, 0 is no effect, 10 is complete control
[13] = Rate 500 g/ha, Pre-emergence section of Table B, 0 to 10 scale (0 no effect, 10 complete control)

C=C(Cl)Cn1c(=O)on(C(=O)N(c2ccccc2)C(C)C)c1=O [Compound 608]
Plant response rating, Crabgrass (crabgrass; [1]): 3 | Plant response rating, Crabgrass (crabgrass; [2]): 3 | Crabgrass plant response rating (crabgrass; [3]): 7 | Plant response rating, Crabgrass (crabgrass; [4]): 7 | Crabgrass plant response rating (crabgrass; [5]): 7 | Crabgrass plant response rating (crabgrass; [6]): 9 | Plant response rating, Crabgrass (crabgrass; [7]): 10 | Plant response rating, Corn (corn; [1]): 0 | Plant response rating, Corn (corn; [2]): 0 | Corn plant response rating (corn; [3]): 0 | Plant response rating, Corn (corn; [4]): 0 | Corn plant response rating (corn; [5]): 0 | Corn plant response rating (corn; [6]): 0 | Corn plant response rating (0 to 10 scale) (corn; Preemergence, Rate 250 g/ha): 0 | Plant response rating, Corn (corn; [7]): 1 | Plant response rating, B. signalgrass (surinam grass; Rate 62 g/ha, scale 0 to 10, 0 is no effect, 10 is complete control): 3 | Plant response rating, B. signalgrass (surinam grass; [8]): 10 | Plant response rating, B. signalgrass (surinam grass; [9]): 10 | B. signalgrass plant response rating (surinam grass; Rate 62 g/ha, scale 0 to 10 (0 no effect, 10 complete control)): 1 | B. signalgrass plant response rating (surinam grass; [8]): 10 | B. signalgrass plant response rating (surinam grass; [9]): 10 | Plant response rating, Soybean (soybean; [1]): 3 | Plant response rating, Soybean (soybean; [2]): 4 | Soybean plant response rating (soybean; [3]): 4 | Soybean plant response rating (soybean; [5]): 0 | Soybean plant response rating (soybean; [6]): 0 | Plant response rating, Soybean (soybean; [7]): 4 | Plant response rating, Giant foxtail (giant foxtail; [1]): 5 | Plant response rating, Giant foxtail (giant foxtail; [2]): 7 | Giant foxtail plant response rating (giant foxtail; [3]): 7 | Plant response rating, Giant foxtail (giant foxtail; [4]): 9 | Giant foxtail plant response rating (giant foxtail; [5]): 9 | Giant foxtail plant response rating (giant foxtail; [6]): 10 | Plant response rating, Giant foxtail (giant foxtail; [7]): 10 | Plant response rating, Rape (rape; [1]): 1 | Plant response rating, Rape (rape; [2]): 5 | Rape plant response rating (rape; [3]): 5 | Plant response rating, Rape (rape; [4]): 7 | Rape plant response rating (rape; [5]): 1 | Rape plant response rating (rape; [6]): 5 | Plant response rating, Rape (rape; [7]): 7 | Plant response rating, S. Flatsedge (0 to 10 scale, 0 is no effect, 10 is complete control) (smallflower flatsedge; [10]): 0 | S. Flatsedge plant response rating (0 to 10 scale, 0 is no effect, 10 is complete control) (smallflower flatsedge; [11]): 0 | S. Flatsedge plant response rating (smallflower flatsedge; [12]): 0 | S. Flatsedge plant response rating (smallflower flatsedge; [13]): 0 | Plant response rating, Barnyardgrass (0 to 10 scale, 0 is no effect, 10 is complete control) (bamyardgrass; [10]): 0 | Barnyardgrass plant response rating (0 to 10 scale, 0 is no effect, 10 is complete control) (bamyardgrass; [11]): 0 | Barnyardgrass plant response rating (bamyardgrass; [12]): 0 | Barnyardgrass plant response rating (bamyardgrass; [13]): 0 | Plant response rating, Redroot pigweed (pigweed; [1]): 3 | Plant response rating, Redroot pigweed (pigweed; [2]): 5 | Redroot pigweed plant response rating (pigweed; [3]): 7 | Plant response rating, Redroot pigweed (pigweed; [4]): 8 | Redroot pigweed plant response rating (pigweed; [5]): 5 | Redroot pigweed plant response rating (pigweed; [6]): 5 | Plant response rating, Redroot pigweed (pigweed; [7]): 7 | Plant response rating, Cocklebur (cocklebur; [1]): 0 | Plant response rating, Cocklebur (cocklebur; [2]): 0 | Cocklebur plant response rating (cocklebur; [3]): 0 | Plant response rating, Cocklebur (cocklebur; [4]): 0 | Cocklebur plant response rating (cocklebur; [5]): 0 | Cocklebur plant response rating (cocklebur; [6]): 0 | Cocklebur plant response rating (0 to 10 scale) (cocklebur; Preemergence, Rate 250 g/ha): 0 | Plant response rating, Cocklebur (cocklebur; [7]): 0 | Plant response rating, Sugarbeets (sugar beet; [1]): 0 | Plant response rating, Sugarbeets (sugar beet; [2]): 5 | Sugarbeets plant response rating (sugar beet; [3]): 5 | Plant response rating, Sugarbeets (sugar beet; [4]): 5 | Sugarbeets plant response rating (sugar beet; [5]): 0 | Sugarbeets plant response rating (sugar beet; [6]): 0 | Plant response rating, Sugarbeets (sugar beet; [7]): 4 | Plant response rating, Nutsedge (purple nutsedge; [1]): 0 | Plant response rating, Nutsedge (purple nutsedge; [2]): 0 | Nutsedge plant response rating (purple nutsedge; [3]): 0 | Nutsedge plant response rating (purple nutsedge; [6]): 0 | Plant response rating, Nutsedge (purple nutsedge; [7]): 0 | Plant response rating, Wheat (wheat; [1]): 0 | Wheat plant response rating (wheat; [3]): 0 | Plant response rating, Wheat (wheat; [4]): 0 | Wheat plant response rating (wheat; [5]): 0 | Wheat plant response rating (wheat; [6]): 0 | Plant response rating, Wheat (wheat; [7]): 0 | Plant response rating, Blackgrass (blackgrass; [1]): 4 | Plant response rating, Blackgrass (blackgrass; [2]): 6 | Blackgrass plant response rating (blackgrass; [3]): 8 | Plant response rating, Blackgrass (blackgrass; [4]): 9 | Blackgrass plant response rating (blackgrass; [5]): 2 | Blackgrass plant response rating (blackgrass; [6]): 5 | Blackgrass plant response rating (0 to 10 scale) (blackgrass; Preemergence, Rate 250 g/ha): 7 | Blackgrass plant response rating (blackgrass; [7]): 9 | Plant response rating, Wild oats (wild oat; [1]): 3 | Plant response rating, Wild oats (wild oat; [2]): 4 | Wild oats plant response rating (wild oat; [3]): 5 | Plant response rating, Wild oats (wild oat; [4]): 6 | Wild oats plant response rating (wild oat; [5]): 0 | Wild oats plant response rating (wild oat; [6]): 3 | Plant response rating, Wild oats (wild oat; [7]): 6 | Plant response rating, Velvetleaf (velvetleaf; [1]): 0 | Plant response rating, Velvetleaf (velvetleaf; [2]): 0 | Velvetleaf plant response rating (velvetleaf; [3]): 4 | Plant response rating, Velvetleaf (velvetleaf; [4]): 6 | Velvetleaf plant response rating (velvetleaf; [5]): 0 | Velvetleaf plant response rating (velvetleaf; [6]): 4 | Plant response rating, Velvetleaf (velvetleaf; [7]): 7 | Plant response rating, Morningglory (morningglory; [1]): 0 | Plant response rating, Morningglory (morningglory; [2]): 7 | Morningglory plant response rating (morningglory; [3]): 8 | Plant response rating, Morningglory (morningglory; [4]): 10 | Morningglory plant response rating (morningglory; [5]): 0 | Morningglory plant response rating (morningglory; [6]): 0 | Plant response rating, Morningglory (morningglory; [7]): 4 | Plant response rating, Ducksalad (0 to 10 scale, 0 is no effect, 10 is complete control) (duck salad; [10]): 0 | Ducksalad plant response rating (0 to 10 scale, 0 is no effect, 10 is complete control) (duck salad; [11]): 0 | Ducksalad plant response rating (duck salad; [12]): 0 | Ducksalad plant response rating (duck salad; [13]): 0 | Plant response rating, Rice (0 to 10 scale, 0 is no effect, 10 is complete control) (rice; [10]): 0 | Rice plant response rating (0 to 10 scale, 0 is no effect, 10 is complete control) (rice; [11]): 0 | Rice plant response rating (rice; [12]): 0 | Rice plant response rating (rice; [13]): 0
